Test results published in PubChem BioAssay (NCI).
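Test compounds were applied to cells in 96-well plates for 48 hours at 5 doses. Definition used: TGI = concentration required for complete inhibition of growth.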

What was measured:
Assay in all cases: NCI anticancer screen, dose series, 48 h
SNB-75 CNS = system: SNB-75 CNS
OVCAR-3 ovarian = system: OVCAR-3 ovarian
HCT-15 colon = system: HCT-15 colon
HOP-92 NSCLC = system: HOP-92 NSCLC
SF-539 CNS = system: SF-539 CNS
UACC-257 melanoma = system: UACC-257 melanoma
SF-295 CNS = system: SF-295 CNS
A498 renal = system: A498 renal
UO-31 renal = system: UO-31 renal
HT29 colon = system: HT29 colon
ACHN renal = system: ACHN renal
NCI-H460 lung = system: NCI-H460 lung
SK-OV-3 ovarian = system: SK-OV-3 ovarian
MOLT-4 leukemia = system: MOLT-4 leukemia
BT-549 breast = system: BT-549 breast
SNB-19 CNS = system: SNB-19 CNS
NCI-H522 lung = system: NCI-H522 lung
MALME-3M melanoma = system: MALME-3M melanoma
SW-620 colon = system: SW-620 colon
NCI-H226 lung = system: NCI-H226 lung
K-562 leukemia = system: K-562 leukemia
HCT-116 colon = system: HCT-116 colon
U251 CNS = system: U251 CNS
RXF 393 renal = system: RXF 393 renal
NCI/ADR-RES ovarian = system: NCI/ADR-RES ovarian
OVCAR-8 ovarian = system: OVCAR-8 ovarian
NCI-H23 lung = system: NCI-H23 lung
SK-MEL-28 melanoma = system: SK-MEL-28 melanoma
HOP-62 NSCLC = system: HOP-62 NSCLC
CCRF-CEM leukemia = system: CCRF-CEM leukemia
OVCAR-4 ovarian = system: OVCAR-4 ovarian
PC-3 prostate = system: PC-3 prostate
CAKI-1 renal = system: CAKI-1 renal
TK-10 renal = system: TK-10 renal
DU-145 prostate = system: DU-145 prostate
KM12 colon = system: KM12 colon
RPMI-8226 leukemia = system: RPMI-8226 leukemia
IGROV1 ovarian = system: IGROV1 ovarian
UACC-62 melanoma = system: UACC-62 melanoma
T-47D breast = system: T-47D breast
MDA-MB-231 breast = system: MDA-MB-231 breast
SR leukemia = system: SR leukemia
SK-MEL-2 melanoma = system: SK-MEL-2 melanoma
MDA-N = system: MDA-N
COLO 205 colon = system: COLO 205 colon
HS 578T breast = system: HS 578T breast
SF-268 CNS = system: SF-268 CNS
HCC-2998 colon = system: HCC-2998 colon
OVCAR-5 ovarian = system: OVCAR-5 ovarian
MCF7 breast = system: MCF7 breast
786-0 renal = system: 786-0 renal
SK-MEL-5 melanoma = system: SK-MEL-5 melanoma
MDA-MB-435 = system: MDA-MB-435
HL-60(TB) leukemia = system: HL-60(TB) leukemia
LOX IMVI melanoma = system: LOX IMVI melanoma
EKVX NSCLC = system: EKVX NSCLC
M14 melanoma = system: M14 melanoma
A549 NSCLC = system: A549 NSCLC
SN12C renal = system: SN12C renal
KM20L2 colon = system: KM20L2 colon
M19-MEL melanoma = system: M19-MEL melanoma
DMS 114 small cell lung = system: DMS 114 small cell lung
LXFL 529 NSCLC = system: LXFL 529 NSCLC
SNB-78 CNS = system: SNB-78 CNS

COC(=O)C(CCC(=O)CCl)N1C(=O)c2ccccc2C1=O (stereo not drawn)
TGI (SNB-75 CNS): 29.3 µM
TGI (OVCAR-3 ovarian): 16.7 µM
TGI (HCT-15 colon): 15.8 µM
TGI (HOP-92 NSCLC): 12.1 µM
TGI (SF-539 CNS): 22 µM
TGI (UACC-257 melanoma): 22.2 µM
TGI (SF-295 CNS): 35.2 µM
TGI (A498 renal): 36.6 µM
TGI (UO-31 renal): 24.2 µM
TGI (HT29 colon): 27.6 µM
TGI (ACHN renal): 13.9 µM
TGI (NCI-H460 lung): 29.5 µM
TGI (SK-OV-3 ovarian): 31.5 µM
TGI (MOLT-4 leukemia): 6.94 µM
TGI (BT-549 breast): 21.8 µM
TGI (SNB-19 CNS): 37.1 µM
TGI (NCI-H522 lung): 4.06 µM
TGI (MALME-3M melanoma): 11.9 µM
TGI (SW-620 colon): 15.6 µM
TGI (NCI-H226 lung): 29.9 µM
TGI (K-562 leukemia): 12.7 µM
TGI (HCT-116 colon): 14.5 µM
TGI (U251 CNS): 28.9 µM
TGI (RXF 393 renal): 6.45 µM
TGI (NCI/ADR-RES ovarian): 29.7 µM
TGI (OVCAR-8 ovarian): 19 µM
TGI (NCI-H23 lung): 22.8 µM
TGI (SK-MEL-28 melanoma): 23.5 µM
TGI (HOP-62 NSCLC): 29 µM
TGI (CCRF-CEM leukemia): 6.34 µM
TGI (OVCAR-4 ovarian): 27.4 µM
TGI (PC-3 prostate): 26.5 µM
TGI (CAKI-1 renal): 26.7 µM
TGI (TK-10 renal): 21.5 µM
TGI (DU-145 prostate): 26.9 µM
TGI (KM12 colon): 36.9 µM
TGI (RPMI-8226 leukemia): 20.7 µM
TGI (IGROV1 ovarian): 26.9 µM
TGI (UACC-62 melanoma): 26 µM
TGI (T-47D breast): 26.8 µM
TGI (MDA-MB-231 breast): 28.7 µM
TGI (SR leukemia): 11.7 µM
TGI (SK-MEL-2 melanoma): 21.9 µM
TGI (MDA-N): 23.9 µM
TGI (COLO 205 colon): 40.3 µM
TGI (HS 578T breast): 32.4 µM
TGI (SF-268 CNS): 28.4 µM
TGI (HCC-2998 colon): 22.5 µM
TGI (OVCAR-5 ovarian): 28.4 µM
TGI (MCF7 breast): 18.5 µM
TGI (786-0 renal): 15.2 µM
TGI (SK-MEL-5 melanoma): 16.1 µM
TGI (MDA-MB-435): 22 µM
TGI (HL-60(TB) leukemia): 5.71 µM
TGI (LOX IMVI melanoma): 4.02 µM
TGI (EKVX NSCLC): 35.3 µM
TGI (M14 melanoma): 14.8 µM
TGI (A549 NSCLC): 35.3 µM
TGI (SN12C renal): 23.8 µM

COc1ccc2c(c1)CC[C@@H]1C2CC[C@](C)(C#N)C1CC#N (stereo partly drawn)
TGI (SNB-75 CNS): > 100 µM
TGI (OVCAR-3 ovarian): > 100 µM
TGI (HOP-92 NSCLC): > 100 µM
TGI (UACC-257 melanoma): > 100 µM
TGI (SF-295 CNS): > 100 µM
TGI (KM20L2 colon): > 100 µM
TGI (A498 renal): > 100 µM
TGI (UO-31 renal): > 100 µM
TGI (HT29 colon): > 100 µM
TGI (ACHN renal): > 100 µM
TGI (NCI-H460 lung): > 100 µM
TGI (SK-OV-3 ovarian): > 100 µM
TGI (MOLT-4 leukemia): > 100 µM
TGI (SNB-19 CNS): > 100 µM
TGI (NCI-H522 lung): > 100 µM
TGI (MALME-3M melanoma): > 100 µM
TGI (K-562 leukemia): > 100 µM
TGI (HCT-116 colon): > 100 µM
TGI (U251 CNS): > 100 µM
TGI (RXF 393 renal): > 100 µM
TGI (NCI-H23 lung): > 100 µM
TGI (SK-MEL-28 melanoma): > 100 µM
TGI (M19-MEL melanoma): > 100 µM
TGI (HOP-62 NSCLC): > 100 µM
TGI (CCRF-CEM leukemia): > 100 µM
TGI (OVCAR-4 ovarian): > 100 µM
TGI (DMS 114 small cell lung): > 100 µM
TGI (KM12 colon): > 100 µM
TGI (RPMI-8226 leukemia): > 100 µM
TGI (IGROV1 ovarian): > 100 µM
TGI (UACC-62 melanoma): > 100 µM
TGI (SR leukemia): > 100 µM
TGI (COLO 205 colon): > 100 µM
TGI (SF-268 CNS): > 100 µM
TGI (OVCAR-5 ovarian): > 100 µM
TGI (LXFL 529 NSCLC): > 100 µM
TGI (786-0 renal): > 100 µM
TGI (SNB-78 CNS): > 100 µM
TGI (M14 melanoma): > 100 µM
